Measured values: patent US12173089B2, “Inhibition of pulmonary fibrosis with nutlin-3A and peptides” (BOARD OF REGENTS, THE UNIVERSITY OF TEXAS SYSTEM, priority 2013, dated 2024)

Legend:
BLM-treated mice [1] = assay: Established lung fibrosis in BLM-treated mice (CT scanning, lung function, trichrome staining, hydroxyproline, desmosine); format: in vivo; conditions: for established lung fibrosis: WT mice, results reported herein and elsewhere
Procedure: FIGS. 10A-10D. Nutlin-3a (NTL) inhibits lung fibrosis in BLM-treated mice. Mice were exposed to BLM for 14 d to induce lung fibrosis. Saline treated mice were used as fibrosis controls. After 14 d, mice exposed to BLM were injected IV with either vehicle or nutlin-3 a (10 mg/kg body weight) (Zhang F et al. Drug Metab Dispos 39: 15-21, 2011) to determine whether nutlin-3 a inhibited established lung fibrosis. On day 21 after BLM injury, mice underwent CT scanning to assess the extent of fibrosis (FIG. 10A). One representative example is shown (n=9). (FIG. 10B) Lung compliance and resistance were measured in the same mice using the Flexivent system to assess improvement in lung function after nutlin-3 a treatment (n=9). (FIG. 10C) Lung sections were subjected to trichrome staining to assess lung architecture and collagen deposition as an indication of lung fibrosis. (FIG. 10D) Whole lung homogenates were analyzed for total collagen (hydroxyproline) and desmosine content as an independent assessment of changes in ECM.
FIGS. 11A-11D. CSP-4 inhibits established lung fibrosis and improves lung function. Mice were exposed to BLM to induce pulmonary fibrosis. After 14 d, the mice were injected IV with either vehicle or 1.5 mg/kg body weight of CSP-4 or control peptide (“CP”) of scrambled sequence. On d 21 after BLM injury, mice underwent CT scanning examine CSP-4 inhibition of established lung fibrosis (FIG. 11A). One representative example is shown (n=9). (FIG. 11B): Lung volumes were measured in the same mice (n=9) using quantitative CT renditions. (FIG. 11C): Lung sections were subjected to trichrome and H&E staining (not shown) to assess collagen deposition as an indicator of lung fibrosis. (FIG. 11D) Analysis of whole lung homogenates for total hydroxyproline content.
Mice exposed to BLM (or saline in controls) for 14 d to induce lung fibrosis were injected IV with nutlin-3a (10 mg/kg body weight) (Zhang et al, supra) or a vehicle control to determine and the effect on established lung fibrosis was examined. Fibrosis was evaluated by CT scanning and lung function (compliance and resistance) were measured using the Flexivent system. Lung sections were subjected to trichrome staining and H & E staining (the latter not shown) to assess lung architecture and collagen deposition as an indication of fibrosis. Finally, whole lung homogenates were analyzed for total collagen (hydroxyproline) and desmosine content (Bhandary Y P et al, Am J Physiol: Lung Cell Mol Physiol 302:L463-73, 2012; Bhandary Y P et al, Am J Pathol, 183: 131-43 2013) as an independent assessment of the ECM. […] Oral administration of Nutlin-3a 14 days after BLM injury likewise inhibited pulmonary fibrosis in mice.
Mice were exposed to BLM to induce pulmonary fibrosis. After 14 d, the mice were injected IV with either vehicle or 1.5 mg/kg body weight of CSP-4 (SEQ ID NO: 1) or control peptide (scrambled sequence of same amino acids; CP, SEQ ID NO:5) at 1.5 mg/kg body weight or vehicle was injected IV into mice exposed to BLM 14 days earlier. One week later, mice were tested by CT scanning to evaluate lung fibrosis. Lung volume was measured in the same mice using quantitative CT renditions.

BLM-treated mice [2] = assay: Ki-67 immunohistochemistry of lung sections of BLM-treated mice; format: in vivo; conditions: IV treatment 14 d after BLM, sections seven days later
Procedure: FIGS. 12A-12C. CSP-4 or nutlin-3a (NTL) inhibits proliferation of FL-fibroblasts. Mice were exposed to BLM for 14 d to induce significant lung fibrosis or to saline (fibrosis controls). 14 d later, mice exposed to BLM were treated with CSP-4 or CP, or nutlin-3a (see FIGS. 10A-10D/11A-11D). (FIG. 12A): Lung sections (d 21 after BLM injury) were subjected to immunohistochemistry (IHC) for Ki-67 to assess proliferation. One representative example is shown (n=9). Fibroblasts were isolated from the lungs of mice exposed to saline, BLM or BLM+nutlin-3a (as described in FIG. 11A) were tested for the changes in expression of col-I, p53 and downstream uPA and PAI-1 proteins by Western blotting (FIG. 12B):, and mRNA by quantitative RT-PCR (FIG. 12C).
Mice exposed to BLM 14 days earlier were treated with CSP-4 or its control (CP) or Nutlin-3a IV (as in Examples IX and X). Seven days later lung sections were obtained and subjected to IHC for Ki-67 to assess cell proliferation (see FIG. 12A). […] Fibroblasts isolated from the lungs of these animals (as described in Example X) were tested for the changes in expression of col-I, p53 and downstream uPA and PAI-1 proteins by Western blotting, and mRNA by quantitative RT-PCR (see FIGS. 12B-12C).

FL(IPF)-fibroblasts = assay: Immunoblot of FL-fibroblast lysates for Col-I, PAI-1, p53 and uPA after exposure to nutlin-3a or CSP-4; format: cell-based, human; conditions: nutlin-3a 10 μM, CSP-4 10 nM, 48 hrs
Procedure: FIGS. 8A-8C. Role of p53-fibrinolytic system cross-talk in nutlin-3a (NTL) or CSP-4-mediated inhibition of col-I expression in FL(IPF)-fibroblasts. (FIG. 8A) FL-fibroblasts were exposed to PBS, nutlin-3a (10 uM), CSP-4 (10 nM) or control peptide (CP) for 48 h. The cell lysates were immunoblotted for the expression of Col-I, PAI-1, p53, uPA and β-actin. (FIG. 8B) FL-fibroblasts cultured in 12 well plates in DMEM media were exposed to vehicle (PBS) or nutlin-3a, CSP-4 or CP. After 3 d, cells were detached and counted. (FIG. 8C) FL-fibroblasts were transduced with empty adenovirus vector alone (Ad-EV) or Ad-vector expressing p53 (Ad-p53), PAI-1 (Ad-PAI-1) or caveolin-1 (Ad-Cav-1). After 48 h, cell lysates were immunoblotted for Col-I, p53, PAI-1, uPA and β-actin.
FL-fibroblasts were exposed to PBS (control), nutlin-3a (10 μM), CSP-4 (10 nM) or CP for 48 hrs. Lysates were immunoblotted for the expression of Col-I, PAI-1, p53, and uPA. Cultured FL- were exposed to vehicle (PBS) or nutlin-3a, CSP-4 or CP and counted to assess proliferation. […] The process involves induction of p53 and PAI-1 expression, and concurrent inhibition of uPA.

FL-fibroblasts = assay: Treatment of FL-fibroblasts with nutlin-3a or CSP-4 (findings stated in the summary); format: cell-based; conditions: for miR-34a expression / production of ECM / uPAR expression: FL-fibroblasts

Molecule | effect on established lung fibrosis (CT, compliance and resistance, trichrome, hydroxyproline, desmosine) (BLM-treated mice [1]; IV 10 mg/kg body weight 14 d after BLM, read on day 21) | established lung fibrosis (BLM-treated mice [1]; IV or oral administration beginning 14 d after BLM) | pulmonary fibrosis (BLM-treated mice [1]; oral administration 14 days after BLM injury) | staining for ki-67 antigens in lung sections (BLM-treated mice [2]) | PAI-1 expression (FL(IPF)-fibroblasts) | col-I expression (FL(IPF)-fibroblasts) | p53 expression (FL(IPF)-fibroblasts) | uPA expression (FL(IPF)-fibroblasts) | miR-34a expression (FL-fibroblasts) | production of ECM (FL-fibroblasts) | uPAR expression (FL-fibroblasts) | apoptosis of fibrotic fibroblasts (FL-fibroblasts; fibroblasts from lungs of patients with IPF and of mice with BLM-induced pulmonary fibrosis) | established lung fibrosis (BLM-treated mice [1]; IP or IV administration beginning 14 d after BLM) | BLM-induced lung fibrosis (CT, lung volume, trichrome and H&E, hydroxyproline) (BLM-treated mice [1]; IV 1.5 mg/kg body weight 14 d after BLM, read one week later)
COc1ccc(C2=NC(c3ccc(Cl)cc3)C(c3ccc(Cl)cc3)N2C(=O)N2CCNC(=O)C2)c(OC(C)C)c1 (stereo not shown) [nutlin-3a, 4-2-4,5-dihydro-1H-imidazole-1-piperazin-2-one] | beneficial effect | mitigates | inhibited | significantly reduced | induction | inhibited | induction | inhibition | restore | inhibits | inhibition | results in apoptosis | – | –
FTTFTVT [CSP-4] | – | – | – | significantly reduced | induction | inhibited | induction | inhibition | restore | inhibits | inhibition | – | mitigates | inhibited
